Series [1] has as its system PC-3 human pancreatic cancer cells (ATCC CRL 1435). The experiment in a line: In vivo PC-3 tumor reduction. Further details: species or system Balb/c nu/nu mice. Conditions: day 0 to day 25-30, average of n studies. As to the method:
PC-3 human pancreatic cancer eclls (ATCC CRL 1435) were grown to 90% confluence in F12/MEM (Gibco) containing 7% FBS (Gibco). Cells were mechanically harvested using a rubber scraper, and then washed twice with cold medium. The resulting cells were resuspended in cold medium with 30% matrigel (Collaborative Research) and the cell-containing medium was maintained on ice until used.
Balb/c nu/nu mice at 7-9 weeks of age were anesthetized with avertin [2,2,2-tribromethanol/t-amyl alcohol (1 g/l mL) diluted 1:60 into phosphate-buffered sline] and 3-5×10^6 of the above cells in 0.2 mL of medium were injected into the left flank of each mouse. Cells were injected in the morning, whereas dosing with an inhibitor began at 6 PM. The animals were gavaged BID from day zero (cell injection day) to day 25-30, at which time the animals were euthanized and tumors weighed.
Compounds were dosed at 10 mg/mL in 0.5% methylcellulose/0.1% polysorbate 80 to provide a 50 mg/kg (mpk) dose twice each day, or diluted to provide a 10 mg/kg (mpk) dose twice each day. Tumor measurements began on day 7 and continued every third or fourth day until completion of the study. Groups of ten mice were used in each study and nine to ten survived. Each group of mice so studied constitutes an “n” value of one, so that “n” values greater than one represent multiple studies whose averaged result is provided in the table. […]

Series [2] relates to advanced, rapidly progressive, treatment-refractory solid tumor cancers (colorectal, pancreatic, ovarian, prostate). The following applies: Phase I/II, cited from earlier work.
Series [3] has as its system neovascularization of the corneal stroma. Nature of the series: In vivo angiogenesis assay (corneal micropocket, bFGF/sucralfate Hydron pellet). Conditions: 50 mpk bid, po; scored at day five; average of n studies. Set-up: species or system C57Bl/6 female mouse. As to the method:
The study of angiogenesis depends on a reliable and reproducible model for the stimulation and inhibition of a neovascular response. The corneal micropocket assay provides such a model of angiogenesis in the cornea of a mouse. See, A Model of Angiogenesis in the Mouse Cornea; Kenyon, BM, et al., Investigative Ophthalmology & Visual Science, July 1996, Vol. 37, No. 8.
In this assay, uniformLy sized Hydron™ pellets containing bFGF and sucralfate were prepared and surgically implanted into the stroma mouse cornea adjacent to the temporal limbus. […]
Mice were dosed on a daily basis for the duration of the assay. […] At day five, the degree of angiogenic inhibition was scored by viewing the neovascular progression with a slit lamp microscope.
The mice were anesthetized and the studied eye was once again proptosed. The maximum vessel length of neovascularization, extending from the limbal vascular plexus toward the pellet was measured. In addition, the contiguous circumferential zone of neovascularization was measured as clock hours, where 30 degrees of arc equals one clock hour. The area of angiogenesis was calculated as follows. […]
Five to six mice were utilized for each compound in each study. The studied mice were thereafter compared to control mice and the difference in the area of neovascularization was recorded as an averaged value. […]

SMILES strings stand for the structures. Bounds are passed on as bounds.

For the compound `CNC(=O)[C@@H](NC(=O)[C@H](CC(C)C)[C@H](O)C(=O)NO)C(C)(C)C` [marimastat], the “Average Percentage Reduction In Tumor Weight” value in series [1] (10 mpk BID gavage) was less than 5%; in series [1] (50 mpk BID gavage), 39 (n = 2) percent. The “most common drug-related toxicity” value in series [2] (clinical trials) was “musculoskeletal pain and stiffness”. For the same compound, the “cancer-specific antigens used as surrogate markers for biological activity” value in series [2] (patients with advanced solid tumor cancers) was “dose-related reduction in the rise of cancer-specific antigens”. The “Inhibition of Angiogenesis (area of neovascularization vs control)” value in series [3] was 48 (n = 6) percent.

Values taken from patent US20060084688A1, “Aromatic sulfone hydroxamic acid metalloprotease inhibitor” (priority 1997, published 2006).
